# Where a name gives a salt, the structure may show the parent alone.
row,SMILES,melting point
1,"COc1cc([N+](=O)[O-])ccc1Cn1nnc2c(-c3ccco3)nc(N)nc21 [Example 159, 7-(2-furyl)-3-(2-methoxy-4-nitrobenzyl)-3H-[1,2,3]triazolo[4,5-d]pyrimidine-5-amine]",235.9 to 237.8 °C
2,"Cc1ccc(-c2nc(N)nc3c2nnn3Cc2ccc([N+](=O)[O-])c(C)c2)o1 [Example 123, 7-(5-methyl-2-furyl)-3-(3-methyl-4-nitrobenzyl)-3H-[1,2,3]triazolo[4,5-d]pyrimidine-5-amine]",214.6 to 216.2 °C
3,"Nc1nc(-c2ccco2)c2nnn(Cc3cc(F)ccc3[N+](=O)[O-])c2n1 [Example 155, 3-(5-fluoro-2-nitrobenzyl)-7-(2-furyl)-3H-[1,2,3]triazolo[4,5-d]pyrimidine-5-amine]",258.6 to 258.7 °C
4,"Nc1nc(-c2ccco2)c2nnn(Cc3ccc4c(c3)CCO4)c2n1 [Example 166, 3-(2,3-dihydrobenzofuran-5-ylmethyl)-7-(2-furyl)-3H-[1,2,3]triazolo[4,5-d]pyrimidine-5-amine]",210.3 to 211.2 °C
5,"Cc1ccc(-c2nc(N)nc3c2nnn3Cc2cccs2)o1 [Example 61, 7-(5-methyl-2-furyl)-3-(2-thienylmethyl)-3H-[1,2,3]triazolo[4,5-d]pyrimidine-5-amine]",193.8 to 194.1 °C
6,"Nc1nc(-c2ccco2)c2nnn(Cc3ccc(Cl)cc3[N+](=O)[O-])c2n1 [Example 119, 3-(4-chloro-2-nitrobenzyl)-7-(2-furyl)-3H-[1,2,3]triazolo[4,5-d]pyrimidine-5-amine]",> 230 °C
7,"CC(C)CC(=O)NCc1cccc(Cn2nnc3c(-c4ccco4)nc(N)nc32)c1 [Example 85, N-(3-(5-amino-7-(2-furyl)-3H-[1,2,3]triazolo[4,5-d]pyrimidin-3-ylmethyl)benzyl)-3-methylbutanamide]",215.9 to 217.5 °C
8,"CC(=O)Nc1ccc(Cn2nnc3c(-c4ccco4)nc(N)nc32)cc1 [Example 193, N-(4-(5-amino-7-(2-furyl)-3H-[1,2,3]triazolo[4,5-d]pyrimidin-3-ylmethyl)phenyl)acetamide]",253.6 to 254 °C
9,"COc1cc(Cn2nnc3c(-c4ccco4)nc(N)nc32)ccc1[N+](=O)[O-] [Example 133, 7-(2-furyl)-3-(3-methoxy-4-nitrobenzyl)-3H [1,2,3]triazolo[4,5-d]pyrimidine-5-amine]",209.7 to 209.9 °C
10,"CC(C)(C)OC(=O)Nc1ccc(Cn2nnc3c(-c4ccco4)nc(N)nc32)cc1F [Example 143, tert-butyl N-(4-(5-amino-7-(2-furyl)-3H-[1,2,3]triazolo[4,5-d]pyrimidine-3-ylmethyl)-2-fluorophenyl)carbamate]",167 to 167.3 °C
11,"CC(C)(C)OC(=O)n1ccc2c(Cn3nnc4c(-c5ccco5)nc(N)nc43)cccc21 [Example 138, tert-butyl 4-(5-amino-7-(2-furyl)-3H-[1,2,3]triazolo[4,5-d]pyrimidine-3-ylmethyl)indole-1-carboxylate]",58.5 to 62.6 °C
12,"Cc1ccc(-c2nc(N)nc3c2nnn3Cc2ccc(N)c(C)c2)o1 [Example 124, 3-(4-amino-3-methylbenzyl)-7-(5-methyl-2-furyl)-3H-[1,2,3]triazolo[4,5-d]pyrimidine-5-amine]",215.7 to 216.7 °C
13,"Cc1csc(-c2nc(N)nc3c2nnn3Cc2cccc([N+](=O)[O-])c2)n1 [Example 109, 7-(4-methyl-2-thiazolyl)-3-(3-nitrobenzyl)-3H-[1,2,3]triazolo[4,5-d]pyrimidine-5-amine]",289.8 to 289.9 °C
14,"Cc1cc(Cn2nnc3c(-c4ccco4)nc(N)nc32)cc(C)c1[N+](=O)[O-] [Example 259, 3-(3,5-dimethyl-4-nitrobenzyl)-7-(2-furyl)-3H-[1,2,3]triazolo[4,5-d]pyrimidine-5-amine]",228.4 to 228.5 °C
15,"Nc1nc(-c2ccco2)c2nnn(Cc3ccc4[nH]ccc4c3)c2n1 [Example 153, 7-(2-furyl)-3-(5-indolylmethyl)-3H-[1,2,3]triazolo[4,5-d]pyrimidine-5-amine]",226.8 to 227.4 °C
16,"CC(C)(C)OC(=O)n1cc(Cn2nnc3c(-c4ccco4)nc(N)nc32)c2ccccc21 [Example 204, tert-butyl 3-(5-amino-7-(2-furyl)-3H-[1,2,3]triazolo[4,5-d]pyrimidine-3-ylmethyl)indole-1-carboxylate]",143.6 to 144.5 °C
17,"CC(=O)NCc1ccccc1Cn1nnc2c(-c3ccco3)nc(N)nc21 [Example 178, N-(2-(5-amino-7-(2-furyl)-3H-[1,2,3]triazolo[4,5-d]pyrimidin-3-ylmethyl)benzyl)acetamide]",216.7 to 218.4 °C
18,"C=CCOCc1cccc(Cn2nnc3c(-c4ccco4)nc(N)nc32)n1 [Example 185, 3-(6-allyloxymethyl-2-pyridylmethyl)-7-(2-furyl)-3H-[1,2,3]triazolo[4,5-d]pyrimidine-5-amine]",155.6 to 157.1 °C
19,"CC(C)COCc1cccc(Cn2nnc3c(-c4ccco4)nc(N)nc32)n1 [Example 217, 7-(2-furyl)-3-(6-isobutyloxymethyl-2-pyridylmethyl)-3H-[1,2,3]triazolo[4,5-d]pyrimidine-5-amine]",146.7 to 149.3 °C
20,"Nc1nc(-c2ccco2)c2nnn(Cc3ccc4nn[nH]c4c3)c2n1 [Example 158, 3-(1H-Benzotriazol-5-ylmethyl)-7-(2-furyl)-3H-[1,2,3]triazolo[4,5-d]pyrimidine-5-amine]",> 300 °C (dec.)
21,"Cc1ccc(-c2nc(N)nc3c2nnn3Cc2c(F)cccc2F)o1 [Example 60, 3-(2,6-difluorobenzyl)-7-(5-methyl-2-furyl)-3H-[1,2,3]triazolo[4,5-d]pyrimidine-5-amine]",209.7 to 209.8 °C
22,"Cc1ccc(-c2nc(N)nc3c2nnn3Cc2cc(N)ccc2F)o1 (as salt: hydrochloride) [Example 84, 3-(5-amino-2-fluorobenzyl)-7-(5-methyl-2-furyl)-3H-[1,2,3]triazolo[4,5-d]pyrimidine-5-amine hydrochloride]",235.8 to 236.5 °C
23,"CC(=O)NCc1cccc(Cn2nnc3c(-c4ccco4)nc(N)nc32)c1 [Example 68, N-(3-(5-amino-7-(2-furyl)-3H-[1,2,3]triazolo[4,5-d]pyrimidin-3-ylmethyl)benzyl)acetamide]",228.1 to 229.3 °C
24,"CN(Cc1cccc(Cn2nnc3c(-c4ccco4)nc(N)nc32)n1)S(C)(=O)=O [Example 239, N-(6-(5-amino-7-(2-furyl)-3H-[1,2,3]triazolo[4,5-d]pyrimidin-3-ylmethyl)-2-pyridylmethyl)-N-methyl methanesulphonamide]",205.8 to 206 °C
25,"COc1ccc(F)c(Cn2nnc3c(-c4ccco4)nc(N)nc32)c1 [Example 51, 3-(2-fluoro-5-methyoxybenzyl)-7-(2-furyl)-3H-[1,2,3]triazolo[4,5-d]pyrimidine-5-amine]",182.9 to 183.1 °C

# Next, values leading:
row,melting point,SMILES
1,> 300 °C (dec.),"NCc1ccc(Cn2nnc3c(-c4ccco4)nc(N)nc32)cc1 [Example 144, 3-(4-aminomethylbenzyl)-7-(2-furyl)-3H-[1,2,3]triazolo[4,5-d]pyrimidine-5-amine]"
2,263.2 to 263.5 °C,"N#Cc1ccnc(Cn2nnc3c(-c4ccco4)nc(N)nc32)c1 [Example 105, 3-(4-cyano-2-pyridylmethyl)-7-(2-furyl)-3H-[1,2,3]triazolo[4,5-d]pyrimidine-5-amine]"
3,249.8 to 250 °C,"Cc1cccnc1Cn1nnc2c(-c3ccco3)nc(N)nc21 [Example 95, 7-(2-furyl)-3-(3-methyl-2-pyridylmethyl)-3H-[1,2,3]triazolo[4,5-d]pyrimidine-5-amine]"
4,129.1 to 131 °C,"Nc1nc(-c2ccco2)c2nnn(Cc3cnccn3)c2n1 [Example 128, 7-(2-furyl)-3-(2-pyrazinylmethyl)-3H-[1,2,3]triazolo[4,5-d]pyrimidine-5-amine]"
5,204.1 to 204.2 °C,"Nc1nc(-c2ccco2)c2nnn(Cc3cccs3)c2n1 [Example 33, 7-(2-furyl)-3-(2-thienylmethyl)-3H-[1,2,3]triazolo[4,5-d]pyrimidine-5-amine]"
6,221.4 to 221.5 °C,"CNCc1cccc(Cn2nnc3c(-c4ccco4)nc(N)nc32)n1 (as salt: hydrochloride) [Example 226, 7-(2-Furyl)-3-(6-(N-methylamino)methyl-2-pyridylmethyl)-3H-[1,2,3]triazolo[4,5-d]pyrimidine-5-amine]"
7,229.6 to 230.3 °C,"Cc1cnccc1Cn1nnc2c(-c3ccco3)nc(N)nc21 [Example 126, 7-(2-furyl)-3-(3-methyl-4-pyridylmethyl)-3H-[1,2,3]triazolo[4,5-d]pyrimidine-5-amine]"
8,209.9 to 210.1 °C,"Nc1nc(-c2ccco2)c2nnn(Cc3cccc(Cl)c3)c2n1 [Example 27, 3-(3-chlorobenzyl)-7-(2-furyl)-3H-[1,2,3]triazolo[4,5-d]pyrimidine-5-amine]"
9,240.3 to 240.4 °C,"Nc1ccc(Cn2nnc3c(-c4ccco4)nc(N)nc32)cc1 [Example 141, 3-(4-aminobenzyl)-7-(2-furyl)-3H-[1,2,3]triazolo[4,5-d]pyrimidine-5-amine]"
10,188.3 to 188.5 °C,"CC(C)c1cccc(Cn2nnc3c(-c4ccco4)nc(N)nc32)n1 [Example 197, 7-(2-furyl)-3-(6-isopropyl-2-pyridylmethyl)-3H-[1,2,3]triazolo[4,5-d]pyrimidine-5-amine]"
11,164.3 to 169.3 °C,"CC(C)c1ccc(Cn2nnc3c(-c4ccco4)nc(N)nc32)cn1 [Example 228, 7-(2-furyl)-3-(6-isopropyl-3-pyridylmethyl)-3H-[1,2,3]triazolo[4,5-d]pyrimidine-5-amine]"
12,208.6 to 208.8 °C,"CCc1cccc(Cn2nnc3c(-c4ccco4)nc(N)nc32)n1 [Example 135, 3-(6-ethyl-2-pyridylmethyl)-7-(2-furyl)-3H-[1,2,3]triazolo[4,5-d]pyrimidine-5-amine]"
13,187.3 to 187.7 °C,"Cc1cccc(Cn2nnc3c(-c4ccco4)nc(N)nc32)c1 [Example 23, 7-(2-furyl)-3-(3-methylbenzyl)-3H-[1,2,3]triazolo[4,5-d]pyrimidine-5-amine]"

# — US7589097B2, “Triazol[4,5-d] pyramidine derivatives and their use as purinergic receptor antagonists” (Vernalis Research Limited, priority 2001, dated 2009)
